Experimental data reported in patent publication US20240197927A1, “COMBINATION COMPRISING A NEUROTENSIN RECEPTOR BINDING COMPOUND, GEMCITABINE AND NAB-PACLITAXEL” (Fusion Pharmaceuticals Inc., priority 2021, published 2024).

Experiments:
[1] = biological target: neurotensin receptor 2 (NTR2) (Homo sapiens, UniProt O95665); conditions: unlike NTR1; cited from earlier work
metastatic PDAC [2] = conditions: patients with metastatic PDAC; p<0.001; cited from earlier work
metastatic PDAC [3] = conditions: patients with metastatic PDAC, first-line; p<0.001; cited from earlier work
[4] = system: subcutaneous HT-29 tumors; test: Efficacy study on mice bearing subcutaneous HT-29 tumors (tumor volume); assay type: in vivo
Method: The HT-29 cell line was established from the primary tumor of a patient with colon adenocarcinoma (Fogh J et al., J. Natl. Cancer Inst. 1977 Jul. 59(1): 221-26).
(§1) Tumor cells were grown as monolayer at 37° C. in a humidified atmosphere (5% CO2, 95% air). The culture medium was RPMI 1640 containing 2 mM L-glutamine supplemented with 10% fetal bovine serum. For experimental use, tumor cells were detached from the culture flask using accutase and neutralized by the addition of complete culture medium. The cells were counted, and viability exceeded 85% as assessed by 0.25% trypan blue exclusion assay. Two frozen pellets of HT29 tumor cells were prepared: one frozen cell pellet prepared during the in-vitro cell culture, and one frozen cell pellet prepared using the cell suspension used for tumor induction in mice.
Healthy female Swiss Nude mice (Crl:NU(Ico)-Foxn1nu), 7 weeks old at reception, were obtained from Charles River.
Tumors were induced by subcutaneous injection of 1×10^7 HT29 cells in 200 μL of RPMI 1640 medium containing matrigel (50:50, v:v, ref: 356237, BD Biosciences, France) into the right flank (in the axis of the heart) of 160 animals. HT29 tumor cell implantation was performed 24 hours after a whole-body irradiation with a gamma source (2 Gy (Nude mice), 60Co, BioMep, France). The day of tumor induction was considered as the day −11 (D-11). […]

[5] = system: subcutaneous AsPC1 tumors; test: Efficacy study on mice bearing subcutaneous AsPC-1 tumors (tumor volume); assay type: in vivo
Method: The AsPC 1 cell line was isolated from a metastatic site (ascites) from a patient (Chen W H. et al., In Vitro. 1982 Jan; 18(1):24-34).
as §1, with “mice” for “mice.”
Healthy female Swiss Nude mice (Crl:NU(Ico)-Foxn1^nu), 6 weeks old at reception, were obtained from Charles River.
Tumors were induced by subcutaneous injection of 1×10^7 AsPC 1 cells in 200 μL of RPMI 1640 medium containing matrigel (50:50, v:v, ref: 356237, BD Biosciences, France) into the right flank (in the axis of the heart) of 150 animals. AsPC 1 tumor cell implantation was performed 72 hours after whole-body irradiation with a gamma source (2 Gy (Nude mice), 60Co, BioMep, France).
Animals were randomized by individual tumor volume when tumors reach a mean volume of 150-200 mm3. […]

[6] = Toxicity: weight loss of treated mice; assay type: in vivo; conditions: AsPC-1 study mice; combination Groups 2E, 5E, 6E; Gemcitabine/Abraxane Group 3E; ^177Lu-IPN01087 Groups 4E, 7E
Method: ^177Lu-IPN01087 and the reference substances were administered by intravenous injection (IV) into the caudal vein via a catheter. The recommended pH formulation for IV administration is pH 4.5-8.0. […]

[7] = in combination with gemcitabine and nab-paclitaxel chemotherapy regimen

neurotensin receptor 2 (NTR2), sequence (O95665 whole entry, species assumed): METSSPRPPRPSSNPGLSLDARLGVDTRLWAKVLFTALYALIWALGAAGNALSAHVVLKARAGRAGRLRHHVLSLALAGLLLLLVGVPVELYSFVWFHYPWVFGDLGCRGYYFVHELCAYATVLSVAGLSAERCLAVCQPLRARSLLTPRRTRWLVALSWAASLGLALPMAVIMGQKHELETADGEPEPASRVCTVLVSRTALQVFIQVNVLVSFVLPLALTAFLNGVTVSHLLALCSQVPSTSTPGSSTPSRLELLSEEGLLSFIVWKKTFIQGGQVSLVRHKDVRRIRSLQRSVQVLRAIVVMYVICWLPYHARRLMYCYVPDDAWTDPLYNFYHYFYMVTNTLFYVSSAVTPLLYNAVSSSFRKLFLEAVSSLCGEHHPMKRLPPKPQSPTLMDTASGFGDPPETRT

C[C@@H]1CN([C@H]2CC[C@](C#N)(c3ccc(F)cc3)CC2)CC[C@]1(C(=O)O)c1ccccc1 [levocabastine]
affinity for NTR2 [1]: high affinity

Nc1ccn([C@@H]2O[C@H](CO)[C@@H](O)C2(F)F)c(=O)n1 [gemcitabine]
ORR (metastatic PDAC [2]): 9.4%
median OS (metastatic PDAC [2]): 6.8 months
median PFS (metastatic PDAC [2]): 3.3 months
overall response rate (ORR) (metastatic PDAC [3]): 7%
overall survival (OS) (metastatic PDAC [3]): 6.7 months
progression-free survival (PFS) (metastatic PDAC [3]): 3.7 months

^177Lu-zalsenertant tetraxetan [^177Lu-IPN01087]
overall effect in the HT-29 colon cancer model compared to chemotherapy or radiotherapy regimens alone [4, 7]: improved tumor growth control
HT-29 tumor growth, effect as compared to the vehicles ([4]; single treatments, FIG. 2: Group 3 (GEM-ABX), Group 4 (^177Lu-IPN01087 @17MBq), IV): inhibitory effect on tumor growth
overall effect in the AsPC-1 pancreatic cancer model compared to chemotherapy or radiotherapy regimens alone [5, 7]: prolonged regression
AsPC-1 tumor growth, effect compared to the vehicles ([5]; treatment alone, FIG. 7: Group 3E (GEM-ABX), Group 4E (^177Lu-IPN01087 @19MBq), IV): antitumor effect
mean weight losses [6]: −4% to −10%

FOLFIRINOX
ORR (metastatic PDAC [2]): 31.6%
median OS (metastatic PDAC [2]): 11.1 months
median PFS (metastatic PDAC [2]): 6.4 months
